In general, Emax refers to the maximal effect, on the per cent scale that the assay sets. For orientation: EC50 means the midpoint of the concentration-response curve. A low value points to higher potency in that assay.

From US12459953B2, “TREM2 modulators” (Muna Therapeutics ApS, priority 2024, dated 2025) come the findings set out here.

For this assay, the target named is T1, Human TREM2 (Homo sapiens, UniProt Q9NZC2).
T1 construct: expressed in transfected cells
Briefly: Human TREM2 activity by cellular phosphorylation of Syk (AlphaLISA SureFire Ultra p-SYK) in HEK293/DAP12+TREM2 stable cell line. It is filed as cell-based. The following applies: HEK293/DAP12+TREM2 cells. From the text: Human TREM2, in vitro Measurement of Triggering Receptor Expressed on Myeloid Cells 2 activity using cellular phosphorylation of Spleen Tyrosine Kinase (“Syk”) Assay
HEK-293 cells were co-transfected with separate plasmids encoding TREM2 and DAP12 to generate a stable cell line. After antibiotic selection, functional clone pool analysis and two successive limiting dilutions, the final clone
“HEK293/DAP12+TREM2” underwent a qPCR analysis and a pharmacological validation.
TREM2 signaling through DAP12 was monitored in the HEK293/DAP12+TREM2 stable cell line by measuring the phosphorylation levels of the Syk kinase using the commercially available AlphaLISA SureFire Ultra p-SYK (Tyr525/526) Assay Kit (PerkinElmer #ALSU-PSYK), based on the Perkin Elmer AlphaScreen/AlphaLISA technology.
Compounds are transferred to the test plate and tested in full dose response, 8 concentrations in quadruplicate data points. Compound serial dilutions were performed at Cybi-Felix instrument in 100% DMSO and the dose response curves were assembled in automated fashion in 384MPT at Hamilton STARIet instrument. All the stock solutions were prepared at 20 mM in 100% DMSO. For compounds testing, the starting concentration was 100 μM, dilution steps 1:6. A different concentration's range was adapted for compound's activity based on the preliminary results. Finally, a 384MPT reformatted for all compounds at 8 concentrations, quadruplicates, was used as “mother to child” process with a CyBi®-Well dispenser in which 1 μL of each compound was moved into a destination plate pre-filled with 65.6 μL of EMEM cell culture medium (BIOWHITTAKER_cat.BE12-125F), thus obtaining 3× concentrated compounds working solution. In columns 1-2 and 23-24 the control wells were added. In particular, dose response curves of a reference control agonist were included in column 1 and 24 as reference control agonist (Reference control agonists used include Human TREM2 polyclonal Antibody AF1828: R&D Systems; Human TREM2 monoclonal Antibody MAB1828: R&D Systems). The dose response curves were tested starting at 30 μM, dilution step 1:6. Both “source” compound plate and “destination” compound plate were barcoded and a relationship between the two plates was thus generated.
HEK293/DAP12+TREM2 cells were cultured in EMEM medium supplemented with IX Penicillin/Streptomycin (BIOWHITTAKER_cat.DE17-602E), ULTRAGLUTAMINE I 200 mM, 10% Fetal Bovine Serum plus antibiotics referred to as “HEK293 Culture Medium”. The day before the experiment, cells were detached by gentle wash with DPBS, followed by 5 min incubation at 37° C. with Trypsin solution. Cells were then diluted in HEK293 Culture Medium without antibiotics, counted and seeded into 384-well poly-D-Lysine coated microplates black/clear bottom (GREINER 781946) at a density of 10,000 cells/well in 25 μL/well by the use of a MATRIX WellMate dispenser. Plates were placed into a humidified cell culture incubator at 37° C. with 5% CO2 until the experimental day. 20-24 hours after seeding mature medium was removed and replaced with 10 μL/well of EMEM cell medium supplemented with 0.1% Pluronic F-68 non-ionic surfactant (Thermofisher, 24040032), referred to as “Assay Buffer”, using the CyBi®-Well instrument. Then 5 μL/well of Assay Buffer containing 3× concentrated test compounds or the reference control agonist (in 0.5% final DMSO concentration) were added to the cells with the CyBi®-Well instrument. Cell plates were incubated for 30 min into a humidified cell culture incubator at 37° C. with 5% CO2,then the medium was removed by manually discard. 20 μL/well of lysis buffer were dispensed using the CyBi®-Well instrument and plates were incubated for 10 min at room temperature on a plate shaker (350 rpm). Then, 10 μL/well of lysate were transferred to the Alpha plates. The CyBi®-Well instrument was used to dispense 5 μL/well of AlphaLISA Acceptor Bead Solution in IX Immunoassay buffer (Perkin Elmer ALOOOF). […]

T1 sequence (Q9NZC2 19-230): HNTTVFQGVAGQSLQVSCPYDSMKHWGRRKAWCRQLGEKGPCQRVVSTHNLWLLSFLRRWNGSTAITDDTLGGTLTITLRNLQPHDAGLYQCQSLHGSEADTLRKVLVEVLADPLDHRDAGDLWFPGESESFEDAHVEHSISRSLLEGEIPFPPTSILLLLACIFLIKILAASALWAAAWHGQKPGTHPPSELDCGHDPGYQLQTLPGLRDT
T1 sequence (O43914 22-113 partner): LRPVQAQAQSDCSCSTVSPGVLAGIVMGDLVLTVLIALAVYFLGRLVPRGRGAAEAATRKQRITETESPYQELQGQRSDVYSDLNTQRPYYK

For the molecule `Cn1cc([C@H]2CN(c3cc4c(=O)n(C)c(C(F)(F)F)nc4c(-c4ccc(C#N)cc4F)n3)CCO2)cn1` [Example 15, (S)-3-fluoro-4-(3-methyl-6-(2-(1-methyl-1H-pyrazol-4-yl)morpholino)-4-oxo-2-(trifluoromethyl)-3,4-dihydropyrido[3,4-d]pyrimidin-8-yl)benzonitrile], under “maximal response relative to the maximal response of the reference agonist (8-(4-chloro-2-fluorophenyl)-2,3-dimethyl-6-[(2S)-2-(1-methyl-1H-pyrazol-4-yl)morpholin-4-yl]-3H,4H-[1,3]diazino[5,4-d]pyrimidin-4-one)”, the maximum response (Emax) was 75 to 110%. The molecule further showed an EC50 (phospho-Syk AlphaScreen signal, 30 min incubation, concentration giving 50% of maximal response) of 1 to 10 nM.
